What was measured:
[1] = Pharmacokinetic experiment in rats (iv and PO administration); assay type: in vivo; details: male, rat, plasma, SD rats, 5 mg/kg; for AUC(0-t): read-out: AUC0-24h
Excerpt: Polyethylene glycol 400 (lot number R22040588, Shanghai Shaoyuan Reagent Co., Ltd.), DMSO (lot number 20200319, Guangdong Guanghua Sci-Tech Co., Ltd.), Sodium Chloride Physiological Solution (lot number 2011110727, Chenxin Pharmaceutical Co., Ltd.). LC-MS instrument (Thermo Fisher Ultimate 3000 UPLC, TSQ QUANTUM ULTRA triple quadrupole mass spectrometer, AB SCIEX 5500+ QTARP).
SD rats: Male, 180-250 g, purchased from Guangdong Vital River Laboratory Animal Technology Co., Ltd.
The test compound powder was accurately weighed and completely dissolved in DMSO. PEG-400 was added, vortexed and sonicated to mix, then sodium chloride physiological solution was added, vortexed and sonicated to mix to form a 0.5 mg/mL solution (DMSO:PEG-400:NS = 5:60:35, V/V/V). For oral gavage administration, the dose was 10 mL/kg; for intravenous administration, the dose was 2 mL/kg.
After intravenous or oral gavage administration to rats, venous blood (200 µL) was collected at 5 min (not collected for oral gavage administration), 15 min, 30 min, 1 h, 2 h, 5 h, 7 h, and 24 h into EDTA-K2-anticoagulated EP tubes. The samples were centrifuged at 10000 rpm for 2 min, and the plasma was collected and stored at -80 °C until analysis.
A certain amount of the test compound was accurately weighed and dissolved in DMSO to 2 mg/mL as a stock solution. An appropriate volume of the compound stock solution was accurately transferred and diluted with acetonitrile to prepare a series of standard solutions. 4 µL of each standard solution was accurately transferred, and 36 µL of blank plasma was added, vortexed to mix, to prepare plasma samples equivalent to plasma concentrations of 1, 3, 5, 10, 30, 100, 300, 1000, 3000 ng/mL. Each concentration was analyzed in duplicate to establish a standard curve. 30 µL of plasma was taken, and 200 µL of an acetonitrile solution containing internal standard propranolol (5 ng/mL) was added. After vortex mixing, the samples were centrifuged at 4000 rpm for 10 min, and the supernatant was taken for LC-MS analysis. The LC-MS detection conditions were as follows: Column: YMC-Triart C18, 50×2.1 mm, S-3µm, 12 nm.
Mobile phase A: water (0.1% formic acid), mobile phase B: acetonitrile, flow rate: 0.5 mL/min, gradient elution as shown in Table 2 below: Table 2
After detecting plasma concentrations by LC-MS, pharmacokinetic parameters in rats after administration were calculated using a non-compartmental model with WinNonlin 6.1 software. Table 3: Pharmacokinetic Parameters of the Compound of the Present Disclosure in Rats (iv and PO Administration)

[2] = target: T1, hERG channel (Homo sapiens, UniProt Q12809); assay: Effect on hERG current in hERG-HEK293 cells (automated patch-clamp); assay type: cell-based; details: 30 µM compound, peak tail current vs 0.3% DMSO
T1 construct: expressed in transfected cells
T1 sequence (Q12809 whole entry): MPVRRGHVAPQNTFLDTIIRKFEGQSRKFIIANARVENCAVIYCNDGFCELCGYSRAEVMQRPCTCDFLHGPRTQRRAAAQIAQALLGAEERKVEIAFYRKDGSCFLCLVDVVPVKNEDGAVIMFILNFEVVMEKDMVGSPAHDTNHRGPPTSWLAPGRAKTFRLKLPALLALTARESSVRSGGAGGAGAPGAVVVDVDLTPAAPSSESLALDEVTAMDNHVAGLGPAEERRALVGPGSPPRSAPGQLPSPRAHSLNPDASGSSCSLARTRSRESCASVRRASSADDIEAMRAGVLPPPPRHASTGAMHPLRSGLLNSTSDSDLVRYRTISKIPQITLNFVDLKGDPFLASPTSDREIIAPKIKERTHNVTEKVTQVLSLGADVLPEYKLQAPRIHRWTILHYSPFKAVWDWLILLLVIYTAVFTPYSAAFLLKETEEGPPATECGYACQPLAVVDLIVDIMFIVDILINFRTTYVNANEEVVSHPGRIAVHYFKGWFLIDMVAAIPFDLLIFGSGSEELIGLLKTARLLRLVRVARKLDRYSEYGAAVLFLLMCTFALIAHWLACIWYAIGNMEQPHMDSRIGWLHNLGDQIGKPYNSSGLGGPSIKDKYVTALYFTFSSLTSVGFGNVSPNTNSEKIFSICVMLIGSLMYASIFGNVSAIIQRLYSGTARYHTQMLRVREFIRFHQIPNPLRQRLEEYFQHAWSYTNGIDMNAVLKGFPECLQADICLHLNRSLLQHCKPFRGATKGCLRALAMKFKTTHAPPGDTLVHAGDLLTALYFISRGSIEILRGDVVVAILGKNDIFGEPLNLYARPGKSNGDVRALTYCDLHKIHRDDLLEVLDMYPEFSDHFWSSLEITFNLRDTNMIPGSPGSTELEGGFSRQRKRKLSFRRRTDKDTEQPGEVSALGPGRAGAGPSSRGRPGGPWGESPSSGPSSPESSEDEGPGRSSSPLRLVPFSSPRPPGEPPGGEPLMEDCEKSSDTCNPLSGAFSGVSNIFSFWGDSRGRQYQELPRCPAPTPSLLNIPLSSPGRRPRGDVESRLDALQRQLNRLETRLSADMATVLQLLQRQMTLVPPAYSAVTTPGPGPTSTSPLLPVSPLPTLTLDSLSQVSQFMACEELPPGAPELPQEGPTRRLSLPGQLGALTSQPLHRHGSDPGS

| AUC(0-t) [1] [ng·h/mL] | SMILES | hERG Inhibition (%) [2] [%] | also measured |
| --- | --- | --- | --- |
| 29400 | O=c1c(Cl)cccn1-c1ccc(N[C@H]2CC[C@H](Nc3ncc(OC(F)F)cn3)C2)nc1 [Example A9, 3-chloro-6'-(((1S,3S)-3-((5-(difluoromethoxy)pyrimidin-2-yl)amino)cyclopentyl)amino)-2H-[1,3 '-bipyridin]-2-one] | – | – |
| 42500 | N#Cc1cccn(-c2ccc(N[C@H]3CC[C@H](Nc4ncc(OC(F)F)cn4)C3)nc2)c1=O [Example A13, 6'-(((1S,3S)-3-((5-(difluoromethoxy)pyrimidin-2-yl)amino)cyclopentyl)amino)-2-oxo-2H-[1,3'-bipyridine]-3-carbonitrile] | – | half-life [1]: 6.02 h |
| 31400 | O=c1c(F)cccn1-c1ccc(N[C@H]2CC[C@H](Nc3ncc(OC(F)F)cn3)C2)nc1 [Example A14, 6'-(((1S,3S)-3-((5-(difluoromethoxy)pyrimidin-2-yl)amino)cyclopentyl)amino)-3-fluoro-2H-[1,3' -bipyridin]-2-one] | – | half-life [1]: 4.42 h |
| 43800 | O=c1ccccn1-c1cnc(N[C@H]2CC[C@H](Nc3ncc(OC(F)F)cn3)C2)c(F)c1 [Example A17, 6'-(((1S,3S)-3-((5-(difluoromethoxy)pyrimidin-2-yl)amino)cyclopentyl)amino)-5'-fluoro-2H-[1,3 '-bipyridin]-2-one] | – | half-life [1]: 2.97 h |
| – | O=C(O)c1cccn(-c2ccc(N[C@H]3CC[C@H](Nc4ncc(OC(F)F)cn4)C3)nc2)c1=O [Example A22, 6'-(((1S,3S)-3-((5-(difluoromethoxy)pyrimidin-2-yl)amino)cyclopentyl)amino)-2-oxo-2H-[1,3'-bipyridine]-3-carboxylic acid] | – | 30 uM-hERG Inhibition [2]: 19.56 |
| 32000 | COc1cc(-n2ccccc2=O)cnc1N[C@H]1CC[C@H](Nc2ncc(OC(F)F)cn2)C1 [Example A27, 6'-(((1S,3S)-3-((5-(difluoromethoxy)pyrimidin-2-yl)amino)cyclopentyl)amino)-5'-methoxy-2H-[1,3'-bipyridin]-2-one] | – | half-life [1]: 3.89 h; 30 uM-hERG Inhibition [2]: 40.72 |
| 70100 | O=c1cccnn1-c1cnc(N[C@H]2CC[C@H](Nc3ncc(OC(F)F)cn3)C2)c(F)c1 [Example A28, 2-(6-(((1S,3S)-3-((5-(difluoromethoxy)pyrimidin-2-yl)amino)cyclopentyl)amino)-5-fluoropyridin-3-yl)pyridazin-3(2H)-one] | – | – |
| – | O=c1ccccn1-c1cnc(N[C@H]2CC[C@H](Nc3ncc(OC(F)F)cn3)C2)c(CO)c1 [Example A30] | – | 30 uM-hERG Inhibition [2]: 33.75 |
| 60100 | CC(O)c1cccn(-c2ccc(N[C@H]3CC[C@H](Nc4ncc(OC(F)F)cn4)C3)nc2)c1=O (stereo partly drawn) [Example A35, 6'-(((1S,3S)-3-((5-(difluoromethoxy)pyrimidin-2-yl)amino)cyclopentyl)amino)-3-(1-hydroxyethyl)-2H-[1,3'-bipyridin]-2-one] | – | half-life [1]: 14.9 h; 30 uM-hERG Inhibition [2]: 33.81 |
| – | O=c1ccccn1-c1ccc(N[C@H]2CC[C@H](Nc3nc4ccccn4n3)C2)nc1 [Example C7, 6'-(((1S,3S)-3-([1,2,4]triazolo[1,5-a]pyridin-2-ylamino)cyclopentyl)amino)-2H-[1,3'-bipyridin]-2-one] | <50 | – |
| – | COc1ccn2nc(N[C@H]3CC[C@H](Nc4ccc(-n5ccccc5=O)cn4)C3)nc2c1 [Example C8, 6'-(((1S,3S)-3-((7-methoxy-[1,2,4]triazolo[1,5-a]pyridin-2-yl)amino)cyclopentyl)amino)-2H-[1,3 '-bipyridin]-2-one] | <50 | – |
| 40300 | O=c1ccccn1-c1cnc(N[C@H]2CC[C@H](Nc3nc4ccccn4n3)C2)cn1 [Example C9, 1-(5-(((1S,3S)-3-([1,2,4]triazolo[1,5-a]pyridin-2-ylamino)cyclopentyl)amino)pyrazin-2-yl)pyridi n-2(1H)-one] | – | – |
| – | O=c1ccccn1-c1ccc(N[C@H]2CC[C@H](Nc3nc4cccnc4s3)C2)nc1 [Example C15] | <50 | – |
| 39800 | O=c1ccccn1-c1cnc(N[C@H]2CC[C@H](Nc3nc4ccccn4n3)C2)c(F)c1 [Example C17, 6'-(((1S,3S)-3-([1,2,4]triazolo[1,5-a]pyridin-2-ylamino)cyclopentyl)amino)-5'-fluoro-2H-[1,3'-bipyridin]-2-one] | <50 | – |
| – | O=c1ccccn1-c1cnc(N[C@H]2CC[C@H](Nc3nc4nccnc4s3)C2)c(F)c1 [Example C19] | <50 | – |
| – | COc1ccc2nc(N[C@H]3CC[C@H](Nc4ccc(-n5ccccc5=O)cn4)C3)nn2c1 [Example C21] | <50 | – |
| 37700 | O=c1ccccn1-c1cnc(N[C@H]2CC[C@H](Nc3nc4cccnc4s3)C2)c(F)c1 [Example C22] | <50 | – |
| – | C#Cc1ccc2nc(N[C@H]3CC[C@H](Nc4ccc(-n5ccccc5=O)cn4)C3)nn2c1 [Example C26] | <50 | – |
| – | O=c1ccccn1-c1ccc(N[C@H]2CC[C@H](Nc3nc4ncccn4n3)C2)nc1 [Example C30] | <50 | – |

| AUC(0-t) [1] [ng·h/mL] | SMILES | hERG Inhibition (%) [2] [%] | also measured |
| --- | --- | --- | --- |
| – | Cc1ccc2nc(N[C@H]3CC[C@H](Nc4ccc(-n5ccccc5=O)cn4)C3)nn2c1 [Example C32] | <50 | – |
| 41400 | O=c1cccnn1-c1cnc(N[C@H]2CC[C@H](Nc3nc4cccnc4s3)C2)c(F)c1 [Example C34] | <50 | – |
| 39700 | O=c1cccnn1-c1ccc(N[C@H]2CC[C@H](Nc3nc4cccnc4s3)C2)nc1 [Example C35] | <50 | – |
| – | O=c1c(Cl)cccn1-c1cnc(N[C@H]2CC[C@H](Nc3nc4ccccn4n3)C2)c(F)c1 [Example C36] | <50 | – |
| – | O=c1cccnn1-c1ccc(N[C@H]2CC[C@H](Nc3nc4ccccn4n3)C2)nc1 [Example C43] | <50 | – |
| 53000 | O=c1cccnn1-c1cnc(N[C@H]2CC[C@H](Nc3nc4ccccn4n3)C2)c(F)c1 [Example C47, 2-(6-(((1S,3S)-3-([1,2,4]triazolo[1,5-a]pyridin-2-ylamino)cyclopentyl)amino)-5-fluoropyridin-3-yl)pyridazin-3(2H)-one] | <50 | – |
| – | O=c1cccnn1-c1cnc(N[C@H]2CC[C@H](Nc3nc4cccnc4o3)C2)c(F)c1 [Example C48] | <50 | – |
| – | O=c1ccccn1-c1cnc(N[C@H]2CC[C@H](Nc3nc4cccnc4o3)C2)c(F)c1 [Example C53] | <50 | – |
| – | O=c1ccccn1-c1cnc(N[C@H]2CC[C@H](Nc3nc4cccnc4[nH]3)C2)c(F)c1 [Example C56] | <50 | – |
| – | O=c1c(C2CC2)cccn1-c1ccc(N[C@H]2CC[C@H](Nc3nc4cccnc4[nH]3)C2)nc1 [Example C58] | <50 | – |
| – | O=c1c(Cl)cccn1-c1cnc(N[C@H]2CC[C@H](Nc3nc4cccnc4[nH]3)C2)c(F)c1 [Example C61] | <50 | – |
| – | Cn1c(=O)n(-c2ccc(N[C@H]3CC[C@H](Nc4nc5ccccn5n4)C3)nc2)c2cc(C#N)ccc21 [Example C64] | <50 | – |
| – | O=c1c(Cl)ccnn1-c1ccc(N[C@H]2CC[C@H](Nc3nc4ccccn4n3)C2)nc1 [Example C65] | <50 | – |
| – | O=c1cccnn1-c1ccc(N[C@H]2CC[C@H](Nc3nc4cccnc4[nH]3)C2)nc1 [Example C66] | <50 | – |
| – | O=c1c(Cl)ccnn1-c1cnc(N[C@H]2CC[C@H](Nc3nc4ccccn4n3)C2)c(F)c1 [Example C67] | <50 | – |
| – | O=c1cccnn1-c1cnc(N[C@H]2CC[C@H](Nc3nc4cccnc4[nH]3)C2)c(F)c1 [Example C69] | <50 | – |
| – | O=c1ccc2cccnc2n1-c1ccc(N[C@H]2CC[C@H](Nc3nc4ccccn4n3)C2)nc1 [Example C71] | <50 | – |
| – | O=c1ccc2cccnc2n1-c1ccc(N[C@H]2CC[C@H](Nc3nc4cccnc4s3)C2)nc1 [Example C84] | <50 | – |
